Key:
Format in all cases: functional
[1] = tested on: Plasmodium berghei; assay: Antimalarial activity against Plasmodium berghei NK65 infected in Swiss albino mouse assessed as increase of survival days of host at 100 mg/kg, po qd for 4 days (reference value: 20 +/- 2.7 days)
[2] = tested on: Plasmodium berghei; assay: Antimalarial activity against Plasmodium berghei NK65 infected in Swiss albino mouse assessed as inhibition of parasitemia at 100 mg/kg, po qd for 4 days measured on day 7 of after infection relative to control
[3] = tested on: Plasmodium berghei; assay: Antimalarial activity against Plasmodium berghei NK65 infected in Swiss albino mouse assessed as inhibition of parasitemia at 100 mg/kg, po qd for 4 days measured on day 5 of after infection relative to control
[4] = tested on: Plasmodium berghei; assay: Antimalarial activity against Plasmodium berghei NK65 infected in Swiss albino mouse assessed as increase of survival days of host at 10 mg/kg, po qd for 4 days (reference value: 20 +/- 2.7 days)
[5] = tested on: Plasmodium berghei; assay: Antimalarial activity against Plasmodium berghei NK65 infected in Swiss albino mouse assessed as inhibition of parasitemia at 10 mg/kg, po qd for 4 days measured on day 5 to 7 of after infection relative to control

**Q.** Which MSD [1] does the source give for `O=C1C(O)=C(Nc2ccccc2)C(=O)c2ccccc21` here?
**A.** The MSD was 32.5 days.

**Q.** What about the inhibition in vivo at 100 mg/kg [2] of the same compound?
**A.** Its inhibition in vivo at 100 mg/kg is 18.5%.

**Q.** What about the inhibition in vivo at 100 mg/kg [3] of the same compound?
**A.** Its inhibition in vivo at 100 mg/kg is 53.3%.

**Q.** For `COc1ccc(NC2=C(O)C(=O)c3ccccc3C2=O)cc1`, which MSD [1] is on record?
**A.** Its MSD is 26 days.

**Q.** And the inhibition in vivo at 100 mg/kg [2]?
**A.** The inhibition in vivo at 100 mg/kg was 25.9%.

**Q.** And the inhibition in vivo at 100 mg/kg [3]?
**A.** Its inhibition in vivo at 100 mg/kg is 66.6%.

**Q.** For `Cc1cccc(C)c1NC1=C(O)C(=O)c2ccccc2C1=O`, which MSD [1] is on record?
**A.** Its MSD is 26.7 days.

**Q.** And the inhibition in vivo at 100 mg/kg [2]?
**A.** Its inhibition in vivo at 100 mg/kg is 0%.

**Q.** What about the inhibition in vivo at 100 mg/kg [3] of the same compound?
**A.** Its inhibition in vivo at 100 mg/kg is 0%.

**Q.** How did the MSD [4] turn out when `CCN(CC)CCCC(C)Nc1ccnc2cc(Cl)ccc12` (stereo unspecified) [CHLOROQUINE] was run?
**A.** The MSD was over 60 days.

**Q.** What about the inhibition in vivo at 10 mg/kg [5] of the same compound?
**A.** The inhibition in vivo at 10 mg/kg was 98%.
